Test results: US20250011316A1, “PEROXIREDOXIN 3 INHIBITORS AND METHODS OF USE FOR TREATING CANCER” (Wake Forest University Health Sciences, priority 2022, published 2025)
Counter-ions that a name gives are not always drawn.

How the values were obtained:
[1] = Behaviour of compounds in DMSO and complete tissue culture media (HMESO cell viability assay, FIG. 1); assay type: physicochemical; conditions: from DMSO solution
Experimental: FIG. 1: Cell viability assay data in Malignant Mesothelioma (MM) cells (HMESO cell line) treated with compound (1)—HCl or (5)—HCl N=2 technical and 2 biological replicates conducted by 2 different lab technicians. All compounds went into solution in 100% DMSO. (5)—HCl precipitated at concentrations of ˜20-80 μM when added to complete tissue culture media.

HMESO mesothelioma cells = assay: Cell viability study (crystal violet, 48 h); assay type: cell-based; conditions: Homo sapiens, 48 h incubation, read-out: IC50 (Concentration of drug required to kill 50% of cells)
Experimental: Cell Lines were plated in 96-well plates (Corning, Kennebunk, ME, USA) at a density of 2500 cells per well. The following day, cells were treated with test compounds diluted in complete media followed by incubation for 48 h. Post-incubation cells were washed with PBS (Corning Cellgro, Manassas, VA, USA), fixed with 3.0% formaldehyde (Fisher BioReagents, Fair Lawn, NJ, USA) in PBS, and stained for 30 min with 0.1% crystal violet (Acros Organics, Fair Lawn, NJ, USA) in water. Crystal violet stain was removed, and plates were washed with FEO and allowed to dry. To quantify cell viability, plates were imaged using the Lionheart Plate reader (BioTek Instruments, Winooski, VT, USA) and/or analyzed by absorbance at 540 nm (crystal violet dye dissolved in 100% methanol) using the Synergy HTX plate reader (BioTek Instruments, Winooski, VT, USA). To determine the effective cytotoxic concentration (ICso) of test compounds, the data were plotted using a 4-parameter non-linear regression model using GraphPad Prism7 software (GraphPad Software, San Diego, CA, USA).
Cell viability assay data in HMESO mesothelioma cells treated with compounds (1)—HCl or (5) HCl are summarized in the below Table 2. ICso (Concentration of drug required to kill 50% f cells) is shown in […] concentration

[2] = test system: Enterococcus hirae (ATCC #10541); assay: Antimicrobial Activity Assay (MIC / growth inhibition); assay type: cell-based; conditions: E. hirae, overnight at 37° C., MIC determination, n=9
PRX3 = molecular target: T1, PRX3 (Homo sapiens, UniProt P30048); assay: Crosslinking study: PRX3 western blot of H-MESO cell lysates; assay type: cell-based; conditions: H-MESO cells treated 24 hours; TS at 2.5 or 5 μM; reducing SDS-PAGE, PRX3 western blot (FIG. 3)
T1 construct: endogenous in cells; host or cells: H-MESO malignant mesothelioma cells
T1 sequence (P30048 62-256): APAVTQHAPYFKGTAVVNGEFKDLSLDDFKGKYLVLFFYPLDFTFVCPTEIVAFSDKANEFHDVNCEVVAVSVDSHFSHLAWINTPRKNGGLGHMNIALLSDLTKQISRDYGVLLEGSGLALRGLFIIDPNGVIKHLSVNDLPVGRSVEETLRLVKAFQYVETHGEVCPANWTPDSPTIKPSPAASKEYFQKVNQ
Experimental: Malignant Mesothelioma (MM) cells (H-MESO cell line) were plated into 6-well plates in complete tissue culture media. Cells were allowed to adhere for 24 hours before being treated with indicated concentrations of thiostrepton (TS), (1) or (5) (DMSO Stocks) for 24 hours. Cell lysates were generated using standard RIPA buffer, protein concentrations were determined using a Bradford Assay and 20 μg of total protein per sample were separated by reducing SDS-Polyacrylamide Gel Electrophoresis. Proteins were transferred to a PVDF membrane, blocked with 5% Bovine Serum Albumin (BSA) for 1 hour and incubated with PRX3 primary antibody overnight at 4° C. in IX Tris Buffered Saline with Tween (TBST). Membranes were washed 3X with IX TBST and incubated with horseradish peroxidase conjugated (HRP) secondary antibody for 1 hour at room temperature. Membranes were washed 3x in IX TBST and HRP signal was developed using Enhanced Chemiluminescence and visualized on a GE digital imager.

578 cancer cells lines = conditions: of 578 cancer cells lines tested; Corsello et al. Nature Cancer 2020; cited from earlier work
FIG. 5 (CON'T) [3] = assay: FIG. 5 (CON'T)
Experimental: (§1) Table printed on a drawing sheet, FIG. 5 (CON'T)
(§2) The patent's description of the figure: FIG. 5 is a table summarizing the results of Examples 42-44 for various compounds described herein. NT indicates “not tested.” For EC50 values, “A” represents an EC50 less than or equal to 5.0 μM, “B” represents an EC50 from 5.1 μM to 10.0 μM, “C” represents an EC50 from 10.1 μM to 50.0 μM, and “D” represents an EC50 greater than 50.0 μM.
First reader's note: Continued from the sheet before: the first body row is the end of a record begun there; EC50 is given as classes A-D whose legend is not printed on this sheet.

FIG. 5 (CON’T) [4] = assay: FIG. 5 (CON’T)
Experimental: (§3) Table printed on a drawing sheet, FIG. 5 (CON’T)
as §2

FIG. 5 (CON’T) [5] = assay: FIG. 5 (CON’T); remark: listed apart in the source
Experimental: as §3, §2
First reader's note: Continued from an earlier sheet of FIG. 5; the EC50 classes A-D and NT are not explained on this sheet but only in the patent's figure description.

FIG. 5 (CON'T) [6] = assay: FIG. 5 (CON'T); remark: listed apart in the source
Experimental: as §1, §2
First reader's note: Continued from an earlier sheet of FIG. 5; EC50 is given as classes A-C, and neither these classes nor NT are explained on this sheet.

Compound: C=C(NC(=O)c1csc(-c2ccc(N)cc2)n1)C(=O)NC(=C)C(=O)OC [(5)—HCl, Methyl 2-(2-(2-(4-aminophenyl)thiazole-4-carboxamido)acrylamido)acrylate hydrochloride]
- concentrations at which compound precipitated when added to complete tissue culture media [1]: 20 to 80 µM
- IC50 (HMESO mesothelioma cells): 1.93 µM

Compound: C=C(NC(=O)C(=C)NC(=O)c1csc(C2=N[C@@H]3c4csc(n4)[C@H]4NC(=O)c5csc(n5)[C@H]([C@](C)(O)[C@@H](C)O)NC(=O)[C@H]5CSC(=N5)/C(=C/C)NC(=O)[C@H]([C@@H](C)O)NC(=O)c5csc(n5)[C@]3(CC2)NC(=O)[C@H](C)NC(=O)C(=C)NC(=O)[C@H](C)NC(=O)[C@H]([C@@H](C)CC)N[C@@H]2C=Cc3c([C@H](C)O)cc(nc3[C@H]2O)C(=O)O[C@@H]4C)n1)C(N)=O [TS, Thiostrepton, reference compound]
- TS concentrations at which complete growth was observed [2]: < 0.030 µM
- TS concentrations at which no growth was observed [2]: > 0.045 µM
- IC50 (HMESO mesothelioma cells): 1.01 µM
- Covalent PRX3 crosslinking (PRX3-X-PRX3) (PRX3): resulted in covalent PRX3 crosslinking

Compound: C=C(NC(=O)C(=C)NC(=O)c1csc(C2=N[C@@H]3c4csc(n4)[C@H]4NC(=O)c5csc(n5)[C@H]([C@](C)(O)[C@@H](C)O)NC(=O)[C@H]5CSC(=N5)/C(=C/C)NC(=O)[C@H]([C@@H](C)O)NC(=O)c5csc(n5)[C@]3(CC2)NC(=O)[C@H](C)NC(=O)C(=C)NC(=O)[C@H](C)NC(=O)[C@H]([C@@H](C)CC)N[C@@H]2C=Cc3c([C@H](C)O)cc(nc3[C@H]2O)C(=O)O[C@@H]4C)n1)C(N)=O [Thiostrepton, thiostrepton]
- number of tumor cells lines in which meaningful efficacy was shown (578 cancer cells lines): 403

Compound: C=C(NC(=O)c1csc(N2C[C@@H](C)N(C(=O)OC(C)(C)C)[C@@H](C)C2)n1)C(=O)NC(=C)C(=O)OC [compound 56]
- Time into solution from powder? (FIG. 5 (CON'T) [3]): 1 to 2 min

Compound: C=C(NC(=O)c1csc(N2CCC(C(=O)NCCCOC)CC2)n1)C(=O)NC(=C)C(=O)OC [compound 61]
- Time into solution from powder? (FIG. 5 (CON’T) [4]): 1 to 2 min

Compound: C=C(NC(=O)c1csc(N2CCN(CCCOC)C(=O)C2)n1)C(=O)NC(=C)C(=O)OC [compound 63]
- Time into solution from powder? (FIG. 5 (CON’T) [5]): 1 to 2 min

Compound: C=C(NC(=O)c1ccc(-c2ccc(NC(=O)OC(C)(C)C)cc2)cc1)C(=O)NC(=C)C(=O)OC [compound 69]
- Time into solution from powder? (FIG. 5 (CON'T) [6]): 1 to 2 min
